Measurements taken from patent publication US20220290140A1, “TRANS-CYCLOOCTENE LABELED ANTISENSE OLIGONUCLEOTIDES, RADIO LABELED TETRAZINE AND METHODS” (Biogen MA Inc., priority 2019, published 2022).
Read-outs that look alike come from different tables or passages of the source.

Key:
[1] = Parent fraction and blood kinetics of tracer in arterial plasma in NHP; format: in vivo, cynomolgus monkey
Method: (§1) Dynamic PET scans (0-120 min) with arterial input function were performed on a female cynomolgous monkey using ^18F-537-Tz (5.7±0.7 mCi, 0.14±0.12 μg) in order to evaluate the tracer's efficacy in non-human primates. Parent fraction of tracer in arterial plasma was determined by extracting tracer using acetonitrile and analysis by radioHPLC. Baseline scans were performed first, measuring tracer kinetics in the brain. Malat1 ASO-TCO (20 mg in 2.4 mL aCSF) was then injected intrathecally under fluoroscopic guidance and ^18F-537-Tz PET/CT imaging performed at 24 h and 168 h under isoflurane anesthesia. Imaging data were co-registered to a cyno brain atlas, and TAC in subregions of interest were derived from them. Static PET/CT scans were acquired in each imaging session, with the field of view (FOV) oriented to capture the spine. This scan took place 130-160 min p.i. of tracer, and an ROI drawn over the spinal cord with muscle as a reference region.

[2] = Plasma protein binding (PPB); format: in vitro ADME; conditions: rat, read-out: PPB (rat) unbound
Source text: (§2) As pretargeting is a 2-component system, an ^18F-Tz was developed to be CNS-penetrant based on cnsPET-MPO modeling (Zhang, L., et al. (2018). J Med Chem 61(8): 3296-3308).

[3] = rat, in vivo, 1 mg/kg
Method: (§3) Dynamic PET scans were performed with arterial sampling to determine parent fraction of the tracer ^18F-537-Tz in baseline and pretargeted scans. Baseline imaging with a comparison to a homologous block with non-radioactive compound ^19F-537-Tz at 1 mg/kg was performed on a single rat, where non-radioactive compound was administered i.v. 5 min before injection of tracer. Next, three additional rats were imaged at baseline with no ASO-TCO administered. A final three rats received pretargeted scans and were dosed intrathecally with 0.56 mg Malat1 ASO-TCO in 30 μL saline followed by a 40 μL saline flush. 24 h after injection of the ASO, ^18F-537-Tz was injected intravenously and dynamic PET imaging performed.
A metabolite analysis method was developed to enable the tracer kinetic modelling using metabolite corrected plasma activity as an input function. The plasma radioactivity extraction efficiency for all samples was determined and was satisfactory using 1:1 plasma:ACN. The recovery from the HPLC column of the injected radioactivity was determined for each plasma extract injected. Good recovery of the injected radioactivity from the HPLC column was obtained for each plasma extract injection. For the 3 baseline scans, the parent compound fraction of the total activity found in plasma was 86-90% at 5 min, and this fraction decreased to 66-74% at 60 min after ^18F-537-Tz injection. […]

[4] = Brain protein binding (BPB); format: in vitro ADME
Source text: as §2

[5] = Static PET/CT of spine in NHP, spinal cord ROI with muscle as reference; format: in vivo; conditions: cynomolgus monkey, 24 h post-ASO scan
Method: as §1

[6] = Pretargeted PET/CT imaging, ASO-TCO i.t. then 18F-Tz i.v.; format: in vivo, Sprague-Dawley rats
Method: Sprague-Dawley rats were administered ASO-TCO intrathecally (2.5 mM in 30 μL saline). After either 24 hours (center) or 168 hours (right), those rats were then injected I.V. with ^18F-537-Tz (22-30 MBq; […]; 0.2 nmol). Rats were imaged by PET-CT from 75-90 min. post-injection of radiotracer. Control rats (left) received saline only.
FIG. 5 is a bar graph showing Regions of Interest (ROI) drawn from the PET data. Ratios were obtained of % ID/g in tissue of interest (brain and spine) to the reference region (heart). […] Lanes in bar graph depicted from left to right: ASO-TCO (brain:heart); Naive (brain:heart); ASO-TCO (spine:heart); and Naive (spine:heart).
Rats were administered Malat1 ASO-TCO intrathecally (I.T.) and 24 hours later were given ^18F-Tz intravenously (I.V.). They were then imaged 75-90 p.i. by PET/CT.
The same uptake is not seen in rats that received only the ^18F-Tz radiotracer.

[7] = design: species or system mice; conditions: mouse, in vivo, 10 min
Source text: as §2

[8] = Dynamic PET/CT of brain in NHP, baseline and post Malat1 ASO-TCO; format: in vivo; conditions: cynomolgus monkey
Method: The pretargeting PET tracer ^18F-537-Tz was tested in a cynomolgus monkey, including baseline scans and a homologous blocking scan. The monkey was then dosed with Malat1 ASO-TCO and scanned again at 24 h and 168 h.
as §1

[9] = Dynamic PET scans of brain, baseline, homologous block and pretargeted; format: in vivo, rat
Method: as §3
Time-activity-curves (TAC) from 0 to 60 min showing the brain subregion distribution of ^18F-537-Tz in rat 2 at baseline and following iv administration of 1 mg/kg of unlabeled […] are illustrated in FIG. 9. […] The average brain regional SUV from 40-60 min of the scans were similar in the baseline and homologous block scans (Table 1).
PET/CT images with summed radioactivity from 0 to 60 min showing the brain distribution of ^18F-537-Tz in the 4 rats scanned at baseline and the 3 rats scanned 24 h after i.t. administration of ASO-TCO are illustrated in FIG. 10. There was an increase in brain uptake of radioactivity observed in all the ASO-TCO dosed rats. There was an increase of ca. […]

Microsome stability = format: in vitro ADME; conditions: microsomes; read-out: Microsome Stability t1/2
BCRP = molecular target: T1, BCRP (Homo sapiens, UniProt Q9UNQ0); assay: in vitro; format: in vitro ADME; conditions: dog
T1 construct: expressed in transfected cells; host or cells: MDCK (canine kidney) cells expressing BCRP
T1 sequence (Q9UNQ0 1-655): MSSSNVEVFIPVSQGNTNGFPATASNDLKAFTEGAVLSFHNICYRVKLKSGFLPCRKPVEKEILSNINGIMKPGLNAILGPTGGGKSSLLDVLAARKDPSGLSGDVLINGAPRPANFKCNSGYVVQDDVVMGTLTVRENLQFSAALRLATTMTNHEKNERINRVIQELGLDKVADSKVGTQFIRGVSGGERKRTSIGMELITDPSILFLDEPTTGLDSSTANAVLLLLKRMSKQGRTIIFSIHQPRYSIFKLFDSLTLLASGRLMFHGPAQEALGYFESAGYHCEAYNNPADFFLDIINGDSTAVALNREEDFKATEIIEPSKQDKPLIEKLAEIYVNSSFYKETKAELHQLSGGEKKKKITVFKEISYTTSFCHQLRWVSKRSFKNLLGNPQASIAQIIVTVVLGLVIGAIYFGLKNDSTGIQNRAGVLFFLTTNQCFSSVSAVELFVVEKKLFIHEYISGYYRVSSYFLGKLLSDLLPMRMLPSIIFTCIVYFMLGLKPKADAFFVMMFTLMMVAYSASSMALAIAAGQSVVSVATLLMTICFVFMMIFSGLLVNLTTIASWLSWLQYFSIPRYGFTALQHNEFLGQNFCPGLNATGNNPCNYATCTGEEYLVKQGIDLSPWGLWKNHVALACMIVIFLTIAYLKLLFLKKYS
Source text: as §2

[10] = Static PET/CT of upper spine and CSF; format: in vivo, rat
Source text: The static PET/CT images of ^18F-537-Tz uptake in the upper rat spine are illustrated in FIG. 12. […] There was a 10% and 15% increase in the radioactivity uptake in the spine and CSF when comparing the baseline and post ASO-TCO dosed rats (Table 4).

[11] = rats treated with ASO-TCO vs control rats that received only tracer, P<0.005
[12] = rat Subject 2, Baseline scan, 40-60 min p.i. of tracer
[13] = rat Subject 2, Postdose (homologous block, 1 mg/kg non-radioactive compound i.v. 5 min before tracer), 40-60 min p.i.
[14] = rats, Baseline group (no ASO-TCO), 40-60 min p.i. of tracer
[15] = rats, Baseline group, 40-60 min p.i. of tracer
[16] = rats, Pretargeted group (0.56 mg Malat1 ASO-TCO i.t. 24 h before tracer), 40-60 min p.i.
[17] = rats, Pretargeted group (Malat1 ASO-TCO i.t. 24 h before tracer), 40-60 min p.i.
[18] = rats, Pretargeted vs Baseline, 40-60 min p.i.
[19] = baseline vs post ASO-TCO dosed rats
[20] = rats, Baseline group, ca. 70-80 min after tracer injection

## O=C(Cc1ccc(-c2nncnn2)cc1)NCC[18F] [Compound 1]
[1]; cynomolgus monkey arterial plasma, over the course of imaging
  Parent fraction, tracer intact: > 80%
[1]; cynomolgus monkey, over 30 min
  Blood kinetics of the tracer: uptake and rapid clearance
[2]
  fraction unbound: 0.375
[3]; 5 min
  parent compound fraction of total activity in plasma: 82%
[3]; 60 min
  parent compound fraction of total activity in plasma: 62%
[4]
  BPB (rat) unbound: 51%
[5]
  spinal cord SUV normalized to muscle, higher signal than baseline scan: ~25%
[6]; rats given Malat1 ASO-TCO I.T. 24 hours before tracer I.V., imaged 75-90 p.i.
  uptake of tracer in brain and spinal cord (PET/CT images): specific uptake
[6]; [11]
  Brain-to-heart ratio from ROIs: significantly higher
  spine-to-heart ratio from ROIs: significantly higher
[7]
  brain uptake: 1.7±0.9 % ID
[8]; 2-hour scan
  uptake of the tracer in the brain, baseline PET/CT: good uptake
[8]; 24 h and 7 days after Malat1 ASO-TCO i.t.
  SUV uptake, baseline vs post-ASO scans (whole brain ROI): No significant different
[8]; normalized TACs, final timepoint
  difference in SUV between baseline and pretargeted scans in the brain: ~10%
[9]; rat Subject 2, Baseline scan
  SUV Plasma (40-60 min): 1.12
[9]; [12]
  SUV Brain: 1.29
  SUV Cerebellum: 1.38
  SUV Cortex: 1.07
  SUV Frontal Cortex: 1.16
  SUV Hippocampus: 1.28
  SUV Hypothalamus: 1.45
  SUV Thalamus: 1.46
[9]; rat Subject 2, Postdose (homologous block, 1 mg/kg non-radioactive compound i.v. 5 min before tracer)
  SUV Plasma (40-60 min): 1.45
[9]; [13]
  SUV Brain: 1.22
  SUV Cerebellum: 1.38
  SUV Cortex: 1.10
  SUV Frontal Cortex: 1.24
  SUV Striatum: 1.40
  SUV Thalamus: 1.52
[9]; rat, in vivo
  SUV Hippocampus: 1.43
  SUV Striatum: 1.42
[9]; rat, in vivo, iv, 1 mg/kg
  SUV Hippocampus: 1.27
  SUV Hypothalamus: 1.43
[9]; [14]
  SUV Cerebellum: 1.52
  SUV Cortex: 1.25
  SUV Frontal Cortex: 1.33
  SUV Hypothalamus: 1.62
  SUV Plasma: 1.22
  SUV Striatum: 1.52
  SUV Thalamus: 1.64
  SUV Whole Brain: 1.45
[9]; [15]
  SUV normalized to plasma, Cerebellum: 1.27
  SUV normalized to plasma, Cortex: 1.05
  SUV normalized to plasma, Frontal Cortex: 1.11
  SUV normalized to plasma, Hippocampus: 1.2
  SUV normalized to plasma, Hypothalamus: 1.36
  SUV normalized to plasma, Striatum: 1.27
  SUV normalized to plasma, Thalamus: 1.37
  SUV normalized to plasma, Whole Brain: 1.21
[9]; [16]
  SUV Cerebellum: 1.9
  SUV Cortex: 1.66
  SUV Frontal Cortex: 1.66
  SUV Hippocampus: 1.85
  SUV Hypothalamus: 1.89
  SUV Plasma: 1.18
  SUV Striatum: 1.77
  SUV Thalamus: 1.95
  SUV Whole Brain: 1.79
[9]; [17]
  SUV normalized to plasma, Cerebellum: 1.67
  SUV normalized to plasma, Cortex: 1.42
  SUV normalized to plasma, Frontal Cortex: 1.43
  SUV normalized to plasma, Hippocampus: 1.61
  SUV normalized to plasma, Hypothalamus: 1.63
  SUV normalized to plasma, Striatum: 1.47
  SUV normalized to plasma, Thalamus: 1.61
  SUV normalized to plasma, Whole Brain: 1.53
[9]; rats, Pretargeted vs Baseline
  % Change of SUV normalized to plasma, Cerebellum: 31%
  % Change of SUV normalized to plasma, Cortex: 35%
  % Change of SUV normalized to plasma, Frontal Cortex: 29%
  % Change of SUV normalized to plasma, Hippocampus: 34%
  % Change of SUV normalized to plasma, Hypothalamus: 20%
  % Change of SUV normalized to plasma, Striatum: 16%
  % Change of SUV normalized to plasma, Thalamus: 18%
  % Change of SUV normalized to plasma, Whole Brain: 26%
[9]; [18]
  % Change of SUV Cerebellum: 25%
  % Change of SUV Cortex: 33%
  % Change of SUV Frontal Cortex: 25%
  % Change of SUV Hippocampus: 29%
  % Change of SUV Hypothalamus: 17%
  % Change of SUV Striatum: 16%
  % Change of SUV Thalamus: 19%
  % Change of SUV Whole Brain: 23%
[9]; rats, highest uptake in thalamus/hypothalamus, lowest in cortical regions
  brain entry of tracer: readily entered the brain
Microsome stability
  half-life: 1.4 h
BCRP
  efflux ratio: 0.51
[10]; [19]
  increase in radioactivity uptake in the CSF: 15%
  increase in radioactivity uptake in the spine: 10%
[10]; [20]
  Radioactivity uptake CSF: 1.18
  Radioactivity uptake Spine: 0.95
[10]; rats, Pretargeted group (i.t. dosing of ASO-TCO), ca. 70-80 min after tracer injection
  Radioactivity uptake Spine: 1.04
[10]; rats, Pretargeted vs Baseline
  % Change of radioactivity uptake CSF: 16%
  % Change of radioactivity uptake Spine: 9%
